Data from PubChem BioAssay (NCI).
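Grown in 96-well plates, cells were treated for 48 hours with each compound at five concentrations. Insufficient inhibition: endpoint recorded as highest concentration tested. GI50: concentration for 50% inhibition of growth. TGI is the concentration that stops growth completely.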 Where a SMILES comes first, the peptide text is derived from it. [ ]: non-standard residue; d: D form. Phe(4-Cl) = N[CH](Cc1ccc(Cl)cc1)C(=O)O; 2Nal = N[CH](Cc1ccc2ccccc2c1)C(=O)O; 3Pal = N[CH](Cc1cccnc1)C(=O)O

How the values were obtained:
Experiment in all cases: NCI anticancer screen, dose series, 48 h
NCI-H226 lung = test system: NCI-H226 lung
UACC-257 melanoma = test system: UACC-257 melanoma
HOP-92 NSCLC = test system: HOP-92 NSCLC
BT-549 breast = test system: BT-549 breast
NCI-H23 lung = test system: NCI-H23 lung
SW-620 colon = test system: SW-620 colon
A498 renal = test system: A498 renal
SK-MEL-2 melanoma = test system: SK-MEL-2 melanoma
PC-3 prostate = test system: PC-3 prostate
UACC-62 melanoma = test system: UACC-62 melanoma
ACHN renal = test system: ACHN renal
HCC-2998 colon = test system: HCC-2998 colon
MCF7 breast = test system: MCF7 breast
TK-10 renal = test system: TK-10 renal
CAKI-1 renal = test system: CAKI-1 renal
SN12C renal = test system: SN12C renal
SF-539 CNS = test system: SF-539 CNS
SF-268 CNS = test system: SF-268 CNS
OVCAR-8 ovarian = test system: OVCAR-8 ovarian
A549 NSCLC = test system: A549 NSCLC
CCRF-CEM leukemia = test system: CCRF-CEM leukemia
HCT-15 colon = test system: HCT-15 colon
SK-MEL-28 melanoma = test system: SK-MEL-28 melanoma
UO-31 renal = test system: UO-31 renal
NCI/ADR-RES ovarian = test system: NCI/ADR-RES ovarian
COLO 205 colon = test system: COLO 205 colon
RPMI-8226 leukemia = test system: RPMI-8226 leukemia
SNB-75 CNS = test system: SNB-75 CNS
OVCAR-4 ovarian = test system: OVCAR-4 ovarian
MDA-MB-231 breast = test system: MDA-MB-231 breast
HL-60(TB) leukemia = test system: HL-60(TB) leukemia
T-47D breast = test system: T-47D breast
MDA-MB-435 = test system: MDA-MB-435
RXF 393 renal = test system: RXF 393 renal
IGROV1 ovarian = test system: IGROV1 ovarian
OVCAR-5 ovarian = test system: OVCAR-5 ovarian
SF-295 CNS = test system: SF-295 CNS
K-562 leukemia = test system: K-562 leukemia
HOP-62 NSCLC = test system: HOP-62 NSCLC
EKVX NSCLC = test system: EKVX NSCLC
DU-145 prostate = test system: DU-145 prostate
NCI-H460 lung = test system: NCI-H460 lung
SK-OV-3 ovarian = test system: SK-OV-3 ovarian
LOX IMVI melanoma = test system: LOX IMVI melanoma
HS 578T breast = test system: HS 578T breast
SNB-19 CNS = test system: SNB-19 CNS
SK-MEL-5 melanoma = test system: SK-MEL-5 melanoma
OVCAR-3 ovarian = test system: OVCAR-3 ovarian
U251 CNS = test system: U251 CNS
MOLT-4 leukemia = test system: MOLT-4 leukemia
MALME-3M melanoma = test system: MALME-3M melanoma
HT29 colon = test system: HT29 colon
KM12 colon = test system: KM12 colon
NCI-H522 lung = test system: NCI-H522 lung

SMILES: CC(=O)NC(Cc1ccc2ccccc2c1)C(=O)NC(Cc1ccc(Cl)cc1)C(=O)NC(Cc1cccnc1)C(=O)NC(CO)C(=O)NC(Cc1ccc(O)cc1)C(=O)NC(CCCN=C(N)N)C(=O)NC(CC(C)C)C(=O)NC(CCCN=C(N)N)C(=O)N1CCCC1C(=O)NC(C)C(N)=O (stereo unspecified) (Ac-[2Nal][Phe(4-Cl)][3Pal]SYRLRPA-NH2; configuration not given here)
- TGI (NCI-H226 lung): > 100 µM
- TGI (UACC-257 melanoma): > 100 µM
- TGI (HOP-92 NSCLC): > 100 µM
- TGI (BT-549 breast): > 100 µM
- TGI (NCI-H23 lung): > 100 µM

SMILES: Oc1c(I)cc(I)cc1CNCCCN(Cc1ccccn1)Cc1ccccn1
- GI50 (SW-620 colon): 1.04 µM
- TGI (SW-620 colon): 2.41 µM
- GI50 (A498 renal): 0.661 µM
- TGI (A498 renal): 1.32 µM
- GI50 (SK-MEL-2 melanoma): 1.18 µM
- TGI (SK-MEL-2 melanoma): 2.91 µM
- GI50 (PC-3 prostate): 1.17 µM
- TGI (PC-3 prostate): 3.02 µM
- GI50 (UACC-62 melanoma): 0.907 µM
- TGI (UACC-62 melanoma): 1.74 µM
- GI50 (NCI-H226 lung): 0.902 µM
- TGI (NCI-H226 lung): 2 µM
- GI50 (ACHN renal): 0.912 µM
- TGI (ACHN renal): 1.65 µM
- GI50 (HCC-2998 colon): 0.983 µM
- TGI (HCC-2998 colon): 1.91 µM
- GI50 (MCF7 breast): 1.2 µM
- TGI (MCF7 breast): 3.59 µM
- GI50 (TK-10 renal): 0.922 µM
- TGI (TK-10 renal): 1.8 µM
- GI50 (CAKI-1 renal): 0.896 µM
- TGI (CAKI-1 renal): 1.74 µM
- GI50 (SN12C renal): 0.99 µM
- TGI (SN12C renal): 2.12 µM
- GI50 (SF-539 CNS): 0.863 µM
- TGI (SF-539 CNS): 1.61 µM
- GI50 (SF-268 CNS): 1.18 µM
- TGI (SF-268 CNS): 3.21 µM
- GI50 (OVCAR-8 ovarian): 1.25 µM
- TGI (OVCAR-8 ovarian): 3.27 µM
- GI50 (UACC-257 melanoma): 1.21 µM
- TGI (UACC-257 melanoma): 3.39 µM
- GI50 (A549 NSCLC): 1.32 µM
- TGI (A549 NSCLC): 3.82 µM
- GI50 (CCRF-CEM leukemia): 1.54 µM
- TGI (CCRF-CEM leukemia): 50 µM
- GI50 (HCT-15 colon): 1.13 µM
- TGI (HCT-15 colon): 2.79 µM
- GI50 (SK-MEL-28 melanoma): 1.22 µM
- TGI (SK-MEL-28 melanoma): 3.16 µM
- GI50 (UO-31 renal): 0.786 µM
- TGI (UO-31 renal): 1.46 µM
- GI50 (NCI/ADR-RES ovarian): 1.44 µM
- TGI (NCI/ADR-RES ovarian): 4.29 µM
- GI50 (COLO 205 colon): 1.65 µM
- TGI (COLO 205 colon): 5.99 µM
- GI50 (HOP-92 NSCLC): 0.985 µM
- TGI (HOP-92 NSCLC): 2.48 µM
- GI50 (RPMI-8226 leukemia): 1.34 µM
- TGI (RPMI-8226 leukemia): 4.47 µM
- GI50 (SNB-75 CNS): 0.836 µM
- TGI (SNB-75 CNS): 4.32 µM
- GI50 (OVCAR-4 ovarian): 1.02 µM
- TGI (OVCAR-4 ovarian): 2.31 µM
- GI50 (MDA-MB-231 breast): 1.01 µM
- TGI (MDA-MB-231 breast): 2.12 µM
- GI50 (HL-60(TB) leukemia): 1.08 µM
- TGI (HL-60(TB) leukemia): 2.51 µM
- GI50 (T-47D breast): 1.49 µM
- TGI (T-47D breast): 5.83 µM
- GI50 (MDA-MB-435): 0.997 µM
- TGI (MDA-MB-435): 2 µM
- GI50 (RXF 393 renal): 0.866 µM
- TGI (RXF 393 renal): 1.66 µM
- GI50 (IGROV1 ovarian): 0.866 µM
- TGI (IGROV1 ovarian): 1.65 µM
- GI50 (NCI-H23 lung): 1.16 µM
- TGI (NCI-H23 lung): 3.22 µM
- GI50 (OVCAR-5 ovarian): 0.953 µM
- TGI (OVCAR-5 ovarian): 2.11 µM
- GI50 (SF-295 CNS): 0.885 µM
- TGI (SF-295 CNS): 1.74 µM
- GI50 (K-562 leukemia): 1.71 µM
- TGI (K-562 leukemia): 50 µM
- GI50 (HOP-62 NSCLC): 1.02 µM
- TGI (HOP-62 NSCLC): 2.35 µM
- GI50 (EKVX NSCLC): 1 µM
- TGI (EKVX NSCLC): 2.38 µM
- GI50 (DU-145 prostate): 1.51 µM
- TGI (DU-145 prostate): 4.63 µM
- GI50 (NCI-H460 lung): 1.2 µM
- TGI (NCI-H460 lung): 2.78 µM
- GI50 (SK-OV-3 ovarian): 1.01 µM
- TGI (SK-OV-3 ovarian): 2.18 µM
- GI50 (LOX IMVI melanoma): 0.926 µM
- TGI (LOX IMVI melanoma): 1.77 µM
- GI50 (HS 578T breast): 1.38 µM
- TGI (HS 578T breast): 4.53 µM
- GI50 (SNB-19 CNS): 1.49 µM
- TGI (SNB-19 CNS): 5.5 µM
- GI50 (SK-MEL-5 melanoma): 0.886 µM
- TGI (SK-MEL-5 melanoma): 1.59 µM
- GI50 (OVCAR-3 ovarian): 0.948 µM
- TGI (OVCAR-3 ovarian): 1.85 µM
- GI50 (U251 CNS): 1.11 µM
- TGI (U251 CNS): 2.68 µM
- GI50 (MOLT-4 leukemia): 1.18 µM
- TGI (MOLT-4 leukemia): 2.92 µM
- GI50 (MALME-3M melanoma): 0.873 µM
- TGI (MALME-3M melanoma): 1.73 µM
- GI50 (HT29 colon): 1.74 µM
- TGI (HT29 colon): 10.2 µM
- GI50 (KM12 colon): 0.986 µM
- TGI (KM12 colon): 1.97 µM
- GI50 (NCI-H522 lung): 1.34 µM
- TGI (NCI-H522 lung): 4.48 µM
